According to ChEMBL document CHEMBL4308888, “Discovery of novel pyruvate dehydrogenase kinases inhibitors by screening of an in-house small molecule library for anti-lung cancer therapeutics” (Bioorg Med Chem Lett, 2019):
Calls of active or inactive are those of the source. The calls are words filed in the database; no cut-off is given here.

How the values were obtained:
NCI-H1975 [1] = test: Antiproliferative activity against human NCI-H1975 cells assessed as reduction in cell viability at 20 mM after 72 hrs by MTT assay; type: functional, cell-based
NCI-H1650 = test: Antiproliferative activity against human NCI-H1650 cells assessed as reduction in cell viability after 72 hrs by MTT assay; type: functional, cell-based; conditions: NCI-H1650, 72 h
[2] = target: T1, [Pyruvate dehydrogenase (acetyl-transferring)] kinase isozyme 1, mitochondrial (Homo sapiens, UniProt Q15118); conditions: 10 mM
Description: Inhibition of PDK1 (unknown origin) at 10 mM using PDH E1 as substrate measured after 30 mins by kinase-glo assay relative to control

[3] = target: T1, [Pyruvate dehydrogenase (acetyl-transferring)] kinase isozyme 1, mitochondrial; test: Inhibition of PDK1 (unknown origin) at 10 uM using PDH E1 as substrate measured after 30 mins by kinase-glo assay relative to control
[4] = target: T1, [Pyruvate dehydrogenase (acetyl-transferring)] kinase isozyme 1, mitochondrial; test: Inhibition of PDK1 (unknown origin) using PDH E1 as substrate measured after 30 mins by kinase-glo assay
[5] = target: T1, [Pyruvate dehydrogenase (acetyl-transferring)] kinase isozyme 1, mitochondrial; test: Potency index, ratio of DCA EC50 to test compound EC50 for inhibition of PDK1 (unknown origin)
[6] = target: T1, [Pyruvate dehydrogenase (acetyl-transferring)] kinase isozyme 1, mitochondrial; test: Binding affinity to SUMO-fused/His-tagged PDK1 (unknown origin) expressed in Escherichia coli by isothermal calorimetric titration analysis
[7] = target: [Pyruvate dehydrogenase (acetyl-transferring)] kinase isozyme 2, mitochondrial (Homo sapiens, UniProt Q15119); test: Binding affinity to SUMO-fused/His-tagged PDK2 (unknown origin) expressed in Escherichia coli by isothermal calorimetric titration analysis
[8] = target: [Pyruvate dehydrogenase (acetyl-transferring)] kinase isozyme 3, mitochondrial (Homo sapiens, UniProt Q15120); test: Binding affinity to SUMO-fused/His-tagged PDK3 (unknown origin) expressed in Escherichia coli by isothermal calorimetric titration analysis
[9] = target: [Pyruvate dehydrogenase (acetyl-transferring)] kinase isozyme 4, mitochondrial (Homo sapiens, UniProt Q16654); test: Binding affinity to SUMO-fused/His-tagged PDK4 (unknown origin) expressed in Escherichia coli by isothermal calorimetric titration analysis
[10] = target: T2, Pyruvate dehydrogenase kinase (Homo sapiens) (UniProt Q15119+Q15120+Q16654+Q15118); test: Inhibition of PDK in human NCI-H1975 cells assessed as reduction in phosphorylated S293 PDC E1 level at 10 uM by ELISA; type: cell-based
[11] = target: T2, Pyruvate dehydrogenase kinase (Homo sapiens); test: Inhibition of PDK in human NCI-H1975 cells assessed as reduction in phosphorylated S293 PDC E1 level by ELISA; type: cell-based
[12] = target: T2, Pyruvate dehydrogenase kinase (Homo sapiens); test: Inhibition of PDK in human NCI-H1975 cells assessed as reduction in phosphorylated S293 PDC E1 level by Western blot analysis; type: cell-based
NCI-H1975 [13] = test: Antiproliferative activity against human NCI-H1975 cells assessed as reduction in cell viability at 10 uM after 72 hrs by MTT assay; type: functional, cell-based
MRC5 = test: Cytotoxicity against human MRC5 cells assessed as reduction in cell viability up to 40 uM after 72 hrs by MTT assay; type: cell-based; conditions: mrc5, 72 h
A549 = test: cells; conditions: Homo sapiens, A549, 72 h
Description: Antiproliferative activity against human A549 cells assessed as reduction in cell viability after 72 hrs by MTT assay

NCI-H1975 [14] = test: Antiproliferative activity against human NCI-H1975 cells assessed as reduction in cell viability after 72 hrs by MTT assay; type: functional, cell-based; conditions: NCI-H1975, 72 h
[15] = target: T2, Pyruvate dehydrogenase kinase (Homo sapiens); test: Inhibition of PDK in human NCI-H1975 cells assessed as switch of pyruvate metabolism from lactate production to oxidative phosphorylation by measuring increase in ROS production at 1 to 10 uM measured after 4 hrs by DCFH-DA dye based assay; type: cell-based
[16] = target: T2, Pyruvate dehydrogenase kinase (Homo sapiens); test: Inhibition of PDK in human NCI-H1975 cells assessed as switch of pyruvate metabolism from lactate production to oxidative phosphorylation by measuring increase in oxygen consumption rate measured after 2 hrs; type: cell-based
[17] = target: T2, Pyruvate dehydrogenase kinase (Homo sapiens); test: Inhibition of PDK in human NCI-H1975 cells assessed as switch of pyruvate metabolism from lactate production to oxidative phosphorylation by measuring decrease in lactate production at 1 to 10 uM measured after 4 hrs; type: cell-based

T1 sequence (Q15118 whole entry): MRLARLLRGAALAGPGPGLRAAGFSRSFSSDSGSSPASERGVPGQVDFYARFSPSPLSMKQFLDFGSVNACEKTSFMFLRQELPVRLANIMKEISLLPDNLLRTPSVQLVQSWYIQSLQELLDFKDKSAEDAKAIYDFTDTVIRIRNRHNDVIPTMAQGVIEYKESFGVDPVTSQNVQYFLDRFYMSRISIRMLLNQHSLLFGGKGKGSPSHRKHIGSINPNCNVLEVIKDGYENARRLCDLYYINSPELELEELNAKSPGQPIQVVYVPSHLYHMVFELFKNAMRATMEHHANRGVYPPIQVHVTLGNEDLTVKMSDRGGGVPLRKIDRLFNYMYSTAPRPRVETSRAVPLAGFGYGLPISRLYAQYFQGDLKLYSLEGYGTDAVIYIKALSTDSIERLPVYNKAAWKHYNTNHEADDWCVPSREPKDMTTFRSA
Chain of [Pyruvate dehydrogenase (acetyl-transferring)] kinase isozyme 4, mitochondrial (Q16654 whole entry, the tested form may be a part): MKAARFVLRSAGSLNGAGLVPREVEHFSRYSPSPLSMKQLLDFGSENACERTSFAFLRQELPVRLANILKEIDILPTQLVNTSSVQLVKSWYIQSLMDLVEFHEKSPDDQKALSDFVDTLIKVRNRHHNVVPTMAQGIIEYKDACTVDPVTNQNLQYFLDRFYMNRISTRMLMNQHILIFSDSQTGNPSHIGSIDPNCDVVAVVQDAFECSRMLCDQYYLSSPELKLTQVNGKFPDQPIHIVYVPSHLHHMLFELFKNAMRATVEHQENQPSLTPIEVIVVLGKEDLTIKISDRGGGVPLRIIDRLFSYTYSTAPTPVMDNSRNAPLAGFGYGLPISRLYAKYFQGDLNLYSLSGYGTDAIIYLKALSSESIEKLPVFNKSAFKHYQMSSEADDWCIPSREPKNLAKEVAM
Chain of [Pyruvate dehydrogenase (acetyl-transferring)] kinase isozyme 3, mitochondrial (Q15120 whole entry, the tested form may be a part): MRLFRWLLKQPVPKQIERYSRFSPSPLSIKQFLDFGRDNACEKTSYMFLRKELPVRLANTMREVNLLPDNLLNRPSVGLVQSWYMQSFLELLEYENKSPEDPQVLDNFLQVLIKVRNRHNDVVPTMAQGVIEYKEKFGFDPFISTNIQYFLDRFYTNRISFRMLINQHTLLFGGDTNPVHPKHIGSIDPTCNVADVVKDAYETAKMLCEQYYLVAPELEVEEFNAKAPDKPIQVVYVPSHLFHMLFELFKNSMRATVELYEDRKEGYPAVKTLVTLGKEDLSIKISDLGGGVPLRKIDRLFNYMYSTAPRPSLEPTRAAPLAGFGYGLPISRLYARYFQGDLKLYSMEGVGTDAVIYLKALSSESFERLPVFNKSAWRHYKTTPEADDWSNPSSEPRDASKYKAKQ

O=C([O-])C(Cl)Cl.[Na+] [SODIUM DICHLOROACETATE]
Activity (NCI-H1975 [1]): Active | IC50 (NCI-H1650): 16300 µM | inhibition [2]: 64.2%

CCCCN(Cc1ccncc1)C(=O)c1cc(-c2ccccc2O)n[nH]1
inhibition [3]: 89.6% | EC50 [4]: 1.99 µM | Ratio EC50 [5]: > 1000 | Kd [6]: 5.8 µM | Kd [7]: 2.9 µM | Kd [8]: 7.8 µM | Kd [9]: 10.7 µM | inhibition [10]: Active

CC(C)=CCN1CCN(Cc2c(C)n(C)n(-c3ccccc3)c2=O)C[C@@H]1CCO
inhibition [3]: 86.9% | EC50 [4]: 4.64 µM | Ratio EC50 [5]: > 1000 | Kd [6]: 10.5 µM | Kd [7]: 15.9 µM | Kd [8]: 8.9 µM | inhibition [10]: Active

CN(Cc1cnc2ccccn12)C(=O)c1cc(COc2ccc3c(c2)OCO3)[nH]n1
inhibition [3]: 95.6% | EC50 [4]: 0.5 µM | Ratio EC50 [5]: > 1000 | Kd [6]: 1.1 µM | Kd [7]: 2 µM | Kd [8]: 4.7 µM | Kd [9]: 2.6 µM | inhibition [10]: Active | inhibition [11]: Dose-dependent effect | inhibition [12]: Dose-dependent effect | Activity (NCI-H1975 [13]): Active | Activity (MRC5): Non-Toxic | IC50 (NCI-H1650): 15.7 µM | IC50 (A549): 17.8 µM

OCCn1nc(C2CCOCC2)nc1[C@@H]1CCCCN1Cc1ccccc1
inhibition [3]: 93.7% | EC50 [4]: 0.42 µM | Ratio EC50 [5]: > 1000 | Kd [6]: 0.89 µM | Kd [7]: 3.7 µM | Kd [8]: 2.1 µM | Kd [9]: 7.9 µM | inhibition [10]: Active | inhibition [11]: Dose-dependent effect | inhibition [12]: Dose-dependent effect | Activity (NCI-H1975 [13]): Active | Activity (MRC5): Non-Toxic | IC50 (NCI-H1975 [14]): 3.32 µM | IC50 (NCI-H1650): 7.6 µM | inhibition [15]: Active | inhibition [16]: Dose-dependent effect | inhibition [17]: Active | IC50 (A549): 5.9 µM

O=C(c1ccccc1)C(Cl)Cl
Activity (NCI-H1975 [13]): Active | IC50 (NCI-H1650): 7.9 µM | IC50 (A549): 4.7 µM
